# Assays:
# Assay type in all cases: in vivo
# Cercospora zeae-maydis = experiment: Field assessment of Cercospora zeae-maydis (CERCZM), grey leaf spot, in corn
# Source text: Field Assessment of Cercospora zeae-Maydis (CERCZM) in Corn:
# (§1) A fungicidal treatment containing Compound I, applied alone in an EC formulation at 100 grams of active ingredient per hectare (g ai/ha) and tank mixed with an adjuvant (Agnique BP-420, 50% w/w at 0.3% v/v), was sprayed on corn plants (ZEAMX, Formula variety) twice at the growth stages 18 (8 leaves unfolded, application A) and 39 (stem elongation; prior to tassle emergence, application B) at rates of 25, 50, 100, 125 and 150 g ai/ha. The experimental plots were inoculated with grey leaf spot 24 hr after each application. The treatment was part of an experimental trial designed as a randomized complete block with four replications and a plot of approximately 1×3 m. Compound I was applied at water volume of 200 L/ha, using a backpack precision plot sprayer (BKPCKAIR, 2 and 3 m band width, Flat Fan XR110.015 Nozzle) and pressurized at 45 psi.
# (§2) Disease severity (percentage of visual diseased foliage on whole plot) was assessed six times (15-49 days after application B, DAAB). The disease infection was recorded following EPPO PP1/26 guideline prescriptions. Area under the disease progress curve (AUDPC) was calculated for each plot using the sets of recorded severity data. Relative AUDPC (% control based on AUDPC) was calculated as percent of the nontreated control.
# Phaeosphaeria maydis = experiment: Field assessment of Phaeosphaeria maydis (PHSPMA), phaeosphaeria leaf spot, in corn
# Source text: Field Assessment of Phaeosphaeria maydis (PHSPMA) in Corn:
# as §1, with “P30R50” for “Formula”, “phaeosphaeria” for “grey”
# as §2
# Exserohilum turcicum = experiment: Field assessment of Exserohilum turcicum (SETOTU) in corn
# Source text: Field Assessment of Exserohilum turcicum (SETOTU) in Corn: A fungicidal treatment containing Compound I, tank mixed with an adjuvant (Agnique BP-420, 50% w/w at 0.3% v/v), was sprayed on corn plants once at the growth stage 51 (beginning tassel emergence) at rates of 50, 75, 100, and 150 g ai/ha. The treatment was part of an experimental trial designed as a randomized complete block with four replications. Compound I was applied at water volume of 140 L/ha, using a backpack precision plot sprayer. Disease severity was assessed as combined percent visual necrosis on leaves ear-1, ear and ear+1. Severity was assessed twice at 24 DAA1 (days after application 1) and 32 DAA1.
# Puccinia polysora = experiment: Field assessment of Puccinia polysora (PUCCPY), brown rust, in corn
# Source text: Field Assessment of Puccinia polysora (PUCCPY) in Corn:
# as §1, with “P30R50” for “Formula”, “brown rust” for “grey leaf spot”
# as §2
# [1] = 25 g ai/ha, with adjuvant Agnique BP-420, two applications
# [2] = 50 g ai/ha, with adjuvant Agnique BP-420, two applications
# [3] = 100 g ai/ha, with adjuvant Agnique BP-420, two applications
# [4] = 100 g ai/ha, without adjuvant, two applications
# [5] = 125 g ai/ha, with adjuvant Agnique BP-420, two applications
# [6] = 150 g ai/ha, with adjuvant Agnique BP-420, two applications
structure (smiles),measurement,setting,value
"N#Cc1ccc(Oc2ccc(C(F)(F)C(O)(Cn3ncnc3S)c3ccc(F)cc3F)nc2)cc1 (centres unmarked) [Compound I, 4-((6-(2-(2,4-difluorophenyl)-1,1-difluoro-2-hydroxy-3-(5-mercapto-1H-1,2,4-triazol-1-yl)propyl)pyridin-3-yl)oxy)benzonitrile]","Disease (% Control) CERCZM, based on AUDPC",Cercospora zeae-maydis; [1],B (51-75)
same,"Disease (% Control) CERCZM, based on AUDPC",Cercospora zeae-maydis; [2],B (51-75)
same,"Disease (% Control) CERCZM, based on AUDPC",Cercospora zeae-maydis; [3],B (51-75)
same,"Disease (% Control) CERCZM, based on AUDPC",Cercospora zeae-maydis; [4],C (26-50)
same,"Disease (% Control) CERCZM, based on AUDPC",Cercospora zeae-maydis; [5],A (76-100)
same,"Disease (% Control) CERCZM, based on AUDPC",Cercospora zeae-maydis; [6],A (76-100)
same,"Disease (% Control) PHSPMA, based on AUDPC",Phaeosphaeria maydis; [1],B (51-75)
same,"Disease (% Control) PHSPMA, based on AUDPC",Phaeosphaeria maydis; [2],B (51-75)
same,"Disease (% Control) PHSPMA, based on AUDPC",Phaeosphaeria maydis; [3],A (76-100)
same,"Disease (% Control) PHSPMA, based on AUDPC",Phaeosphaeria maydis; [4],B (51-75)
same,"Disease (% Control) PHSPMA, based on AUDPC",Phaeosphaeria maydis; [5],A (76-100)
same,"Disease (% Control) PHSPMA, based on AUDPC",Phaeosphaeria maydis; [6],A (76-100)
same,"Disease severity: combined visual necrosis on leaves ear-1, ear and ear+1","Exserohilum turcicum; 50 g ai/ha, 24 DAA1, tank mixed with Agnique BP-420, untreated control 36.1",46.5%
same,"Disease severity: combined visual necrosis on leaves ear-1, ear and ear+1","Exserohilum turcicum; 50 g ai/ha, 32 DAA1, tank mixed with Agnique BP-420, untreated control 50.4",45.5%
same,"Disease severity: combined visual necrosis on leaves ear-1, ear and ear+1","Exserohilum turcicum; 75 g ai/ha, 24 DAA1, tank mixed with Agnique BP-420, untreated control 36.1",45.0%
same,"Disease severity: combined visual necrosis on leaves ear-1, ear and ear+1","Exserohilum turcicum; 75 g ai/ha, 32 DAA1, tank mixed with Agnique BP-420, untreated control 50.4",44.2%
same,"Disease severity: combined visual necrosis on leaves ear-1, ear and ear+1","Exserohilum turcicum; 100 g ai/ha, 24 DAA1, tank mixed with Agnique BP-420, untreated control 36.1",37.2%
same,"Disease severity: combined visual necrosis on leaves ear-1, ear and ear+1","Exserohilum turcicum; 100 g ai/ha, 32 DAA1, tank mixed with Agnique BP-420, untreated control 50.4",31.6%
same,"Disease severity: combined visual necrosis on leaves ear-1, ear and ear+1","Exserohilum turcicum; 150 g ai/ha, 24 DAA1, tank mixed with Agnique BP-420, untreated control 36.1",37.9%
same,"Disease severity: combined visual necrosis on leaves ear-1, ear and ear+1","Exserohilum turcicum; 150 g ai/ha, 32 DAA1, tank mixed with Agnique BP-420, untreated control 50.4",33.3%
same,"Disease (% Control) PUCCPY, based on AUDPC",Puccinia polysora; [1],A (76-100)
same,"Disease (% Control) PUCCPY, based on AUDPC",Puccinia polysora; [2],A (76-100)
same,"Disease (% Control) PUCCPY, based on AUDPC",Puccinia polysora; [3],A (76-100)
same,"Disease (% Control) PUCCPY, based on AUDPC",Puccinia polysora; [4],A (76-100)
same,"Disease (% Control) PUCCPY, based on AUDPC",Puccinia polysora; [5],A (76-100)
same,"Disease (% Control) PUCCPY, based on AUDPC",Puccinia polysora; [6],A (76-100)
